Here are results for 8 molecules from ChEMBL document CHEMBL4613266, “Discovery and Structure Relationships of Salicylanilide Derivatives as Potent, Non-acidic P2X1 Receptor Antagonists” (J Med Chem, 2020).

Activity calls are given as the source filed them. The rule behind the calls is not given here.

Test [1] concerns the target T1, P2X purinoceptor 1 (Rattus norvegicus, UniProt P47824).
T1 sequence (P47824 whole entry): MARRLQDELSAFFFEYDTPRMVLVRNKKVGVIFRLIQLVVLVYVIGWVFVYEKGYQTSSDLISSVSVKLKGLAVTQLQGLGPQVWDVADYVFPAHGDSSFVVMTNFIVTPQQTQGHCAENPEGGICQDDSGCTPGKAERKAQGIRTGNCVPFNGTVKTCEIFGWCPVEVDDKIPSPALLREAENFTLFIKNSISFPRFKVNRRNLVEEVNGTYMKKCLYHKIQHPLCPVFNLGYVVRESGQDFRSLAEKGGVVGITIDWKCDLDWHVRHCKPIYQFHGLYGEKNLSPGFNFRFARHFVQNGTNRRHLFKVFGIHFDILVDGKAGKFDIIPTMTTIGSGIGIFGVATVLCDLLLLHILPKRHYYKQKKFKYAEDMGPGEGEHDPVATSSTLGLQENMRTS
As to the kind of experiment: Antagonist activity at rat P2X1 receptor.

In test [2] the target is T2, P2X purinoceptor 1 (Homo sapiens) (UniProt P51575).
T2 sequence (whole entry): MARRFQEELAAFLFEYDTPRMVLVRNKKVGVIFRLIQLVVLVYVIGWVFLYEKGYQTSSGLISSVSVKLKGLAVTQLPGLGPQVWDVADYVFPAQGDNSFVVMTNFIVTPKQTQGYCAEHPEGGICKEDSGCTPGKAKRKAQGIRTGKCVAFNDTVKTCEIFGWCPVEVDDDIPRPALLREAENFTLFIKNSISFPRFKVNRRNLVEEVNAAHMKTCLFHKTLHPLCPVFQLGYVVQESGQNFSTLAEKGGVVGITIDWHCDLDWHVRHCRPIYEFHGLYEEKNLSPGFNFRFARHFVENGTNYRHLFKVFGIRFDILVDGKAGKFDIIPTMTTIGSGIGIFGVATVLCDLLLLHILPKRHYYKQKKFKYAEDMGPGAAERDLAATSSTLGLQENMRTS
The test can be described thus: Antagonist activity at non-desensitizing human P2X1 receptor ( P2X2/P2X1 chimera) expressed in human 1321N1 cells assessed as inhibition of ATP-induced calcium influx at 10 uM pre-incubated for 30 mins before ATP stimulation by FLIPR assay relative to control. Format: cell-based.

For test [3], the target named is T2, P2X purinoceptor 1 (Homo sapiens). The test can be described thus: Antagonist activity at non-desensitizing human P2X1 receptor ( P2X2/P2X1 chimera) expressed in human 1321N1 cells assessed as inhibition of ATP-induced calcium influx at 1 uM pre-incubated for 30 mins before ATP stimulation by FLIPR assay relative to control. The test is classed as cell-based.

Test [4] concerns the target T3, P2X purinoceptor 4 (Homo sapiens) (UniProt Q99571).
T3 sequence (whole entry): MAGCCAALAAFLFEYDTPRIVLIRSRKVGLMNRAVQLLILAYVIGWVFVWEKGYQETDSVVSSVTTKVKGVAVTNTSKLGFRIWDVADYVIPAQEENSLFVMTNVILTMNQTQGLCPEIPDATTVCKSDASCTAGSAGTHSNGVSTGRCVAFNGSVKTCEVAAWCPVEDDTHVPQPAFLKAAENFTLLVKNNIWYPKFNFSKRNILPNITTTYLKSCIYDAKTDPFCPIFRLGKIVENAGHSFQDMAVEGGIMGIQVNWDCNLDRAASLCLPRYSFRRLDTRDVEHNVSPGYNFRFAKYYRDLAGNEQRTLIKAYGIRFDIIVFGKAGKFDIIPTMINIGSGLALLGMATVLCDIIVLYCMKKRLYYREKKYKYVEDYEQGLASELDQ
As to the kind of experiment: Antagonist activity at human P2X4 receptor expressed in human 1321N1 cells assessed as inhibition of ATP-induced cytosolic calcium influx at 10 uM preincubated for 30 mins followed by ATP addition by Fluo-4 AM dye-based fluorescence assay relative to control. Format: cell-based.

The target of a further test is T4, P2X purinoceptor 3 (Homo sapiens, UniProt P56373).
T4 sequence (P56373 whole entry): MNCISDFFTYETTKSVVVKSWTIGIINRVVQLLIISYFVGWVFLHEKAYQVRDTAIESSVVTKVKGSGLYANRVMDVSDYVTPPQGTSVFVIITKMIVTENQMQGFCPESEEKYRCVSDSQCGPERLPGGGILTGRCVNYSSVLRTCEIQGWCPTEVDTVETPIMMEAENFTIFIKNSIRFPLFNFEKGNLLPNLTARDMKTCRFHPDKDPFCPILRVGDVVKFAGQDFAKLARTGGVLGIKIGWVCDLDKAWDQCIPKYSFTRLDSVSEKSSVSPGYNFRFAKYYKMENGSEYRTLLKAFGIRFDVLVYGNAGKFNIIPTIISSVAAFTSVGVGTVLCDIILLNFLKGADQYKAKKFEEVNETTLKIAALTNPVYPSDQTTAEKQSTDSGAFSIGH
The test can be described thus: Antagonist activity at human P2X3 receptor expressed in human 1321N1 cells assessed as inhibition of ATP-induced cytosolic calcium influx preincubated for 30 mins followed by ATP addition by Fluo-4 AM dye-based fluorescence assay. Format: cell-based.

Test [5] has as its target T5, P2X purinoceptor 3 (Homo sapiens) (UniProt P56373).
T5 sequence (whole entry): T4 sequence (P56373 whole entry)
The test can be described thus: Antagonist activity at human P2X3 receptor expressed in human 1321N1 cells assessed as inhibition of ATP-induced cytosolic calcium influx at 10 uM preincubated for 30 mins followed by ATP addition by Fluo-4 AM dye-based fluorescence assay relative to control. The test is classed as cell-based.

Another test concerns the target T6, P2X purinoceptor 2 (Homo sapiens, UniProt Q9UBL9).
T6 sequence (Q9UBL9 whole entry): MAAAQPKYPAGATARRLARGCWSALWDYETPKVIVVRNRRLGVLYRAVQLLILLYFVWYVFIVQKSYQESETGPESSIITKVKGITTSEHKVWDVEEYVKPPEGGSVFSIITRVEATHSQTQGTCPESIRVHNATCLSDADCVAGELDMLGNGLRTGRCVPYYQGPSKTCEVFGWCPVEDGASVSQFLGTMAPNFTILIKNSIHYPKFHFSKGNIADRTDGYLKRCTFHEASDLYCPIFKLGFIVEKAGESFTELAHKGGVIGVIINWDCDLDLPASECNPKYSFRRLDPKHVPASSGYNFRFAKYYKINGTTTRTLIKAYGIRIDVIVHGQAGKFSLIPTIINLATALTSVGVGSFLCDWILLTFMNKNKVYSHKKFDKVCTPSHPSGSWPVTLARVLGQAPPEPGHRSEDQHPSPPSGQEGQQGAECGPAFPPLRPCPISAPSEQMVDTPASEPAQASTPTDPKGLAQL
The test can be described thus: Antagonist activity at human P2X2 receptor expressed in human 1321N1 cells assessed as inhibition of ATP-induced cytosolic calcium influx preincubated for 30 mins followed by ATP addition by Fluo-4 AM dye-based fluorescence assay. The test is classed as cell-based.

For test [6], the target named is P2X purinoceptor 1 (Homo sapiens, UniProt P51575). The test can be described thus: (§1) Antagonist activity at non-desensitizing human P2X1 receptor ( P2X2/P2X1 chimera) expressed in human 1321N1 cells assessed as inhibition of ATP-induced calcium influx pre-incubated for 30 mins before ATP stimulation by FLIPR assay relative to control. The test is classed as cell-based.

The target in a further test is T7, P2X purinoceptor 4 (Homo sapiens, UniProt Q99571).
T7 sequence (Q99571 whole entry): T3 sequence (whole entry)
The test can be described thus: Antagonist activity at human P2X4 receptor expressed in human 1321N1 cells assessed as inhibition of ATP-induced cytosolic calcium influx preincubated for 30 mins followed by ATP addition by Fluo-4 AM dye-based fluorescence assay. Format: cell-based.

The target of the next test is T8, P2X purinoceptor 7 (Homo sapiens, UniProt Q99572).
T8 sequence (Q99572 whole entry): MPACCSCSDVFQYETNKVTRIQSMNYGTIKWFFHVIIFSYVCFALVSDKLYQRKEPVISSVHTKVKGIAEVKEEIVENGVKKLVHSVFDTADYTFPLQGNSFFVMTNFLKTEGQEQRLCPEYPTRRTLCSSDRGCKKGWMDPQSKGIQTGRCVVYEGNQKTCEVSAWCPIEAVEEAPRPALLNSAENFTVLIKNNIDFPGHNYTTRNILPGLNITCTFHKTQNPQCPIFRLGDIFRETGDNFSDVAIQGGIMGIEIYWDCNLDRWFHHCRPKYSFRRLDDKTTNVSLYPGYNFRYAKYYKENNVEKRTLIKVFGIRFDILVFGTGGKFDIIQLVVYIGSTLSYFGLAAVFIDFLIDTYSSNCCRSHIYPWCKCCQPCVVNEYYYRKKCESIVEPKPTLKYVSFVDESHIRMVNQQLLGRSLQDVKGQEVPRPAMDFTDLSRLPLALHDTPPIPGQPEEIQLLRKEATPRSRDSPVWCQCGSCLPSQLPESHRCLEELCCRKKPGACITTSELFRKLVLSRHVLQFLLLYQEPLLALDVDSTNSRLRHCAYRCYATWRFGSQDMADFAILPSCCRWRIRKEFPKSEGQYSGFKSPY
As to the kind of experiment: Antagonist activity at human P2X7 receptor expressed in human 1321N1 cells assessed as inhibition of ATP-induced cytosolic calcium influx preincubated for 30 mins followed by ATP addition by Fluo-4 AM dye-based fluorescence assay. Format: cell-based.

The target in test [7] is T2, P2X purinoceptor 1 (Homo sapiens). As to the kind of experiment: Negative allosteric modulator activity at non-desensitizing human P2X1 receptor ( P2X2/P2X1 chimera) expressed in human 1321N1 cells assessed as inhibition of maximal response for ATP-induced calcium influx at 100 to 500 nM pre-incubated for 30 mins before ATP stimulation by FLIPR assay relative to control. The test is classed as cell-based.

For test [8] the target is unchanged. As to the kind of experiment: Antagonist activity P2X1 receptor in human platelets assessed as inhibition of ADP-induced platelet aggregation pre-incubated for 30 mins before ADP stimulation by aggregometry relative to control. The test is classed as cell-based.
Test [9] shares this target. As to the kind of experiment: Antagonist activity P2X1 receptor in Apyrase pre-treated human platelets assessed as inhibition of collagen-induced platelet aggregation pre-incubated for 30 mins before collagen stimulation by aggregometry relative to control. Format: cell-based.
Test [10] deals with T9, P2X purinoceptor 2 (Homo sapiens) (UniProt Q9UBL9).
T9 sequence (whole entry): T6 sequence (Q9UBL9 whole entry)
The test can be described thus: Antagonist activity at human P2X2 receptor expressed in human 1321N1 cells assessed as inhibition of ATP-induced cytosolic calcium influx at 10 uM preincubated for 30 mins followed by ATP addition by Fluo-4 AM dye-based fluorescence assay relative to control. Format: cell-based.

In test [11] the target is T2, P2X purinoceptor 1 (Homo sapiens). The test can be described thus: Antagonist activity P2X1 receptor in Apyrase pre-treated human platelets assessed as inhibition of TRAP6-induced platelet aggregation pre-incubated for 30 mins before TRAP6 stimulation by aggregometry relative to control. The test is classed as cell-based.
For test [12] the target is unchanged. The description is as §1. The test is classed as cell-based.

Usually IC50 stands for the concentration that inhibits the measured activity by half. At P2X purinoceptor 1 [1], `Cc1nc(/N=N/c2ccc(S(=O)(=O)O)cc2S(=O)(=O)O)c(COP(=O)(O)O)c(C=O)c1O` returned a concentration for half-maximal inhibition (IC50) of 1000 nM.

As a reminder, the inhibition is the relative decrease from the control value, in per cent. With `Cc1ccc(C(=O)Nc2ccc(S(=O)(=O)O)c3cc(S(=O)(=O)O)cc(S(=O)(=O)O)c23)cc1NC(=O)c1cccc(NC(=O)Nc2cccc(C(=O)Nc3cc(C(=O)Nc4ccc(S(=O)(=O)O)c5cc(S(=O)(=O)O)cc(S(=O)(=O)O)c45)ccc3C)c2)c1` [SURAMIN], the IC50 against P2X purinoceptor 1 [1] is 1000 to 1700 nM. Also, the inhibition is greater than 90% in test [2] and greater than 40% in test [3].

Molecule `O=C(Nc1cc(C(=O)Nc2ccc(S(=O)(=O)O)cc2S(=O)(=O)O)cc(C(=O)Nc2ccc(S(=O)(=O)O)cc2S(=O)(=O)O)c1)Nc1cc(C(=O)Nc2ccc(S(=O)(=O)O)cc2S(=O)(=O)O)cc(C(=O)Nc2ccc(S(=O)(=O)O)cc2S(=O)(=O)O)c1` returned an IC50 at P2X purinoceptor 1 [1] of 0.28 nM. The inhibition in test [2] came out at 100%.

On to `O=C(Nc1cc(C(F)(F)F)cc(C(F)(F)F)c1)c1cccc(F)c1O`, for which the inhibition in test [4] turned out to be 49%; in [2] it was 80%; in test [5] it was 38%. Moreover, the IC50 is greater than 10000 nM on P2X purinoceptor 3; greater than 10000 nM on P2X purinoceptor 2; 70.6 nM at P2X purinoceptor 1 [6]; no less than 10000 nM on P2X purinoceptor 4; 857 nM on P2X purinoceptor 7. In [7], the inhibition result was “Active”.

For `O=C(Nc1ccc(C(F)(F)F)cc1)c1cc(Cl)ccc1O`, the inhibition in test [2] is 53%; in test [8] it was 23%; in test [5], -6%; in test [9] it was 7%; in test [10], 3%; in test [11], 6%.

For the molecule `O=C(N[C@H](Cc1cscn1)C(=O)N[C@@H](CC1CCCCC1)[C@@H](O)[C@@H](O)C1CC1)c1nc2ccccc2[nH]1`, the IC50 on P2X purinoceptor 1 [1] was determined as 3000 nM; at P2X purinoceptor 1 [6], 496 nM. Besides, the inhibition in test [2] worked out at 100%.

Consider `O=C(Nc1cc(C(F)(F)F)cc(C(F)(F)F)c1)c1cc(Cl)ccc1O` [IMD-0354], for which the IC50 was greater than 10000 nM on P2X purinoceptor 3; greater than 10000 nM on P2X purinoceptor 2; 19.2 nM on P2X purinoceptor 1 [6]; 156 nM at P2X purinoceptor 4; 175 nM on P2X purinoceptor 7. Also, the inhibition in test [2] was greater than 75%; in test [5], 11%; in [12], “Dose-dependent effect”; in test [10], -7%; in [3], greater than 40%. Further, the inhibition entry in test [7] was “Active”.

As for `O=C(Nc1cc(F)cc(F)c1)c1cc(Cl)ccc1O`, the IC50 on P2X purinoceptor 3 is greater than 10000 nM; at P2X purinoceptor 2, greater than 10000 nM; on P2X purinoceptor 1 [6] it was 50.5 nM; at P2X purinoceptor 4, 155 nM; on P2X purinoceptor 7 it was 160 nM. Further, the inhibition in [2] turned out to be 62%; in [8], 14%; in test [5], 2%; in test [9] it was 47%; in test [10], 4%; in [11], 5%.
